PMC8921294, “Inhibition of mitochondrial LonP1 protease by allosteric blockade of ATP binding and hydrolysis via CDDO and its derivatives” (The Journal of Biological Chemistry, 2022)

Assays:
heme oxygenase 1 (HO-1) = assay: HO-1 stabilisation in HeLa ρ^0 cells (immunoblot); type: cell-based, human; conditions: 7 h
Procedure: LonP1 knockdown stabilized HO-1 protein, whereas LonP1 overexpression decreased HO-1 protein (Fig. 4, E and F).
HeLa cells devoid of mitochondrial DNA (HeLa ρ^0) and LCL cells were generated as described previously ([50]). DMEM, RPMI, and fetal bovine serum were purchased from Sigma. All cells were grown with 5% CO2 at 37 °C. LCL cells were cultured in RPMI supplemented with 15% FBS. HeLa Rho 0 cells were cultured in high glucose DMEM (25 mM) (Sigma) supplemented with sodium pyruvate ([…]) and uridine ([…]). CDDO-Me was purchased from Cayman chemicals, and CDDO-AH was synthesized as described previously ([20]). HEK293 cells plated in 60 mm dishes at a confluency of 60 to 70% were transfected with Control or 3′UTR LonP1 siRNA using Lipofectamine 2000 (Invitrogen) and reduced serum OPTI MEM (Sigma) as described in the manufacturer’s protocol to knockdown LonP1, whereas adenoviral transduction was employed to overexpress LonP1. CDDO-Me and CDDO-anhydride were dissolved in DMSO and serially diluted in the respective complete medium and added to HeLa ρ^0 cells and were treated for 7 or 24 h.
Cells were harvested, centrifuged, and washed with PBS and proteins were extracted by adding the lysis buffer (50 mM Tris, [pH 7.5], 300 mM NaCl, and 0.5% Triton X-100) containing 2X Halt phosphatase and protease cocktail inhibitor (Thermo Scientific) for 20 min on ice. […]

26S proteasome = assay: 26S proteasome-dependent degradation of p53 in HeLa ρ^0 cells (immunoblot); type: cell-based, human; conditions: 7 h
From the text: LonP1 belongs to the AAA^+ superfamily of ATPases Associated with diverse cellular Activities, which mediate various cellular processes such as DNA replication, recombination, chromatin remodeling, ribosomal RNA processing, membrane fusion as well as ATP-dependent proteolysis ([48]). The 26S proteasome consists of the 20S proteolytic core particle, which mediates peptide bond hydrolysis and the 19S regulatory particle containing ATPases belonging to the AAA^+ family ([49]). […] We sought to test the apparent selectivity of CDDO derivatives for LonP1 but not the 26S in cultured cells. There are no known proteins that are constitutively degraded by LonP1 under baseline conditions, which would permit us to assay protease inhibition by CDDO derivatives. Therefore, we employed experimentally derived HeLa cells lacking mitochondrial DNA (mtDNA) (referred to as HeLa ρ^0 cells) ([50]), in which LonP1 constitutively degrades mitochondrial transcription factor A (TFAM) ([6]). When TFAM fails to bind mtDNA (e.g., when mtDNA is absent), it is rapidly degraded by LonP1, thus providing a readout for protease activity ([6]). An advantage of using this system is that HeLa cells express the human papillomavirus (HPV) E6 protein, which promotes constitutive degradation of p53 by the 26S proteasome. Thus, the effects of CDDO derivatives on LonP1 and the 26S proteasome can be examined in parallel.
HeLa cells devoid of mitochondrial DNA (HeLa ρ^0) and LCL cells were generated as described previously ([50]). DMEM, RPMI, and fetal bovine serum were purchased from Sigma. All cells were grown with 5% CO2 at 37 °C. LCL cells were cultured in RPMI supplemented with 15% FBS. HeLa Rho 0 cells were cultured in high glucose DMEM (25 mM) (Sigma) supplemented with sodium pyruvate ([…]) and uridine ([…]). CDDO-Me was purchased from Cayman chemicals, and CDDO-AH was synthesized as described previously ([20]). […]

SMILES | Concentration stabilising HO-1 (heme oxygenase 1 (HO-1)) [µM] | Protein levels of p53 (26S proteasome; 1 μM) | 26S proteasome-dependent degradation of p53 (26S proteasome; 0.125 to 0.5 μM) | 26S proteasome-mediated degradation of p53 (26S proteasome; 20 μM)
COC(=O)[C@]12CCC(C)(C)C[C@H]1[C@H]1C(=O)C=C3[C@@]4(C)C=C(C#N)C(=O)C(C)(C)[C@@H]4CC[C@@]3(C)[C@]1(C)CC2 [CDDO-Me] | ≥ 0.125 | increased | did not block | 
CC1(C)CC[C@]2(C(=O)OC(=O)[C@]34CCC(C)(C)C[C@H]3[C@H]3C(=O)C=C5[C@@]6(C)C=C(C#N)C(=O)C(C)(C)[C@@H]6CC[C@@]5(C)[C@]3(C)CC4)CC[C@]3(C)[C@H](C(=O)C=C4[C@@]5(C)C=C(C#N)C(=O)C(C)(C)[C@@H]5CC[C@]43C)[C@@H]2C1 [CDDO-anhydride] | ≥ 0.25 |  |  | did not block
